Measured values: US6342368B1, “WD-40-derived peptides and uses thereof” (The Board of Trustees of the Leland Stanford Junior …, priority 1994, dated 2002)
“Also recorded” adds a separate entry of the source.

Key:
Xenopus oocytes = assay: PKC-mediated Xenopus oocyte maturation (germinal vesicle breakdown, GVBD) after peptide microinjection; type: cell-based; settings: for plateau % GVBD (fraction of oocytes reaching maturation) following insulin exposure: peptide 50 μM, 50 nl microinjected, 20 h time course
Description: Exposure to insulin induces maturation in Xenopus oocytes via a PKC-dependent pathway (Smith, et al., 1992). The maturation response may be quantified by monitoring the appearance of a white spot in the animal hemisphere of the oocyte, indicating germinal vesicle breakdown (GVBD) and maturation. To assess the effects of RACK1 WD-40-derived peptides on insulin-induced PKC-mediated maturation, 50 nl of a 20 mM NaCl solution containing the indicated peptides [peptide I (SEQ ID NO:1; ●), peptide rVI (SEQ ID NO:7; ▪), or injection solution (□)] (peptides at 50 μM) were microinjected into Xenopus oocytes. […] One hour following the peptide injections, the oocytes were exposed to a solution containing insulin (8.25 μg/ml) for 2 minutes (t=0). 10-15 oocytes were used for each sample.
The data, representative of three independent experiments, are expressed as the percent of oocytes with GVBD following insulin exposure and are plotted as a function of time in FIG. 5.

βPKC = target: T1, βPKC (Rattus norvegicus, UniProt P68403); assay: Sensitivity of βPKC to Arg-C endopeptidase (nicking); type: biochemical; settings: low activators: 2.5 μg/ml PS and 50 μM CaCl2; peptide 10 μM
T1 construct: All the solutions contained 5 nM rat brain PKC; from tissue; host or cells: rat brain
Description: Upon activation of PKC, a pseudosubstrate autoinhibitory sequence at the N-terminus of the molecule dissociates from the catalytic site and becomes sensitive to endopeptidase Arg-C (Orr, et al.). In the absence of PKC activators, exposure of the 80 kDa βPKC to endopeptidase Arg-C has no effect on the enzyme (see FIG. 7, lane 1). In the presence of the PKC activators PS, DG and calcium, however, exposure of βPKC to Arg-C results in a “nicking” of the PKC (i.e. limited proteolysis generating a 78 kDa fragment and several small fragments (see FIG. 7, lane 2)). Continued exposure to Arg-C results in the disappearance of βPKC (Orr, et al.). The present experiment tests whether peptides derived from the WD-40 region of RACK1 alter the sensitivity of βPKC to endopeptidase Arg-C.
The methods used to assay Arg-C sensitivity are a modification of methods described by Orr, et al. Rat brain PKC (˜5 nM) was incubated at room temperature in 500 μl of 20 mM Tris-HCl buffer (pH 7.5) alone or with Arg-C (5 units/ml) in the presence or absence of the indicated peptides (final concentration 10 μM or as indicated), PS, DG, and calcium (as indicated). 50 μl aliquots were removed into 20 μl of sample buffer during the reaction as indicated (samples in all the lanes were incubated for 30 minutes , except lanes 5, and 6, which were incubated for 5 and 15 minutes, respectively). The samples were boiled for 10 minutes at 80° C. and loaded onto 8% SDS-PAGE. βPKC was detected by Western blot analysis using anti-βPKC antibodies as described in Examples 6 and 8.
PKC was incubated for the indicated time alone (lane 1) or in the presence of Arg-C (lanes 2-9), with DG (0.8 μg/ml), PS (50 μg/ml) and CaCl2 (1 mM; lane 2), with PS (50 μg/ml) and CaCl2 (1 mM; lane 3), with PS (2.5 μg/ml) and CaCl2 (50 μM; lane 4); with PS (2.5 μg/ml), CaCl2 (50 μM) and with either peptide rVI (SEQ ID NO:7; 10 μM; lanes 5-7), control peptide (SEQ ID NO:9; lane 8) or with peptide I (SEQ ID NO:1; lane 9).

PKC [1] = assay: PKC autophosphorylation; type: biochemical, rat; settings: peptide 10 μM; absence of PKC activators
Description: Rat brain PKC (˜10 nM) was incubated with mild agitation in a final volume of 250 μl of overlay buffer, as in Example 1 either with anti-βPKC pseudosubstrate antibodies (1:10 dilution, Life Technologies, Gaithersburg, Md.) or with the indicated peptide (10 μM). Where indicated, PS (50 μg/ml), DG (0.8 μg/ml) and CaCl2 (1 mM) were also added. The amount of autophosphorylation was determined after 2 hours for the reaction with the anti-pseudosubstrate antibodies, or after 15 minutes for the other samples. 50 μl of a buffer comprised of 20 mM Tris-HCl (pH 7.5), 20 mM MgCl2, 20 μM ATP and 5 μci/ml [γ-^32P]ATP. The mixture was incubated for 15 minutes at room temperature and the reaction was stopped by adding 60 μl sample buffer (see Example 9). The samples were then boiled for 10 minutes, loaded onto a 10% SDS-PAGE mini gel and electrophoresed. The gel was fixed with 50% methanol and 10% acetic acid for 1 hour, and the autophosphorylation of PKC was determined by autoradiography.
The results in FIG. 8 show PKC autophosphorylation in the presence of DG, PS, and calcium (lane 1), in the presence of EGTA (lane 2), in the presence of anti-βPKC pseudosubstrate antibodies (diluted 1:10 in 20 mM Tris-HCl; lane 3), in the presence of peptide rVI (SEQ ID NO:7; 10 μM; lane 4), in the presence of peptide I (SEQ ID NO:1; 10 μM; lane 5), or in the presence of control peptide (SEQ ID NO:9; 10 μM; lane 6).

[2] = test system: PKC binding to recombinant RACK1; assay: Overlay / overlay-extraction assay: inhibition of PKC binding to recombinant RACK1 by peptides; parameters: species or system rat; settings: 10 μM peptide preincubated with PKC
Description: The variation in the overlay protocol consisted of incubating the putative binding peptides with a mixture of PKC isozymes for 15 minutes at room temperature before the mixture was used to contact the nitrocellulose strips containing immobilized RACK1.
Nitrocellulose strips containing immobilized RACK1, that had been contacted with a solution containing a mixture of PKC isozymes, were washed and the area corresponding to the 36 kDa (RACK1-containing) band was cut out. The pieces (containing PKC/RACK1 complexes) were incubated with sample buffer for 10 minutes at 80° C. The sample buffer and the nitrocellulose pieces were then placed in wells in the PAGE gel and subjected to SDS-PAGE to elute the bound proteins. The gel was blotted onto nitrocellulose and a Western blot analysis was carried out using the mixture of antibodies (specific for PKC α, β, γ, δ, ε and ζ isozymes) described in Example 1 part B. Bound antibodies were detected by ^125I-protein A.
Peptides derived from or homologous to WD-40 repeats of RACK1 were tested for their ability to inhibit PKC binding to recombinant RACK1. Binding of PKC to RACK1 was carried out using a variation of the overlay procedure described in Example 3 part B. In the experimental samples, peptides were incubated with a solution containing a mixture of rat brain PKC isozymes (˜10 nM each) for 15 minutes at room temperature.
Following completion of the modified overlay protocol, the samples were subjected to the overlay-extraction protocol detailed in part B, above.
The results in FIG. 3 show the binding of PKC to RACK1, carried out without (lane 1) or with (lanes 2-4) a preincubation of peptides with PKC. […] Peptide I caused an 81±6% inhibition of PKC binding to recombinant RACK1 as compared with binding in the absence of added peptide (n=3). Lanes 3 and 4 show PKC binding following a preincubation with 10 μM peptide rIII (SEQ ID NO:4) and 10 μM peptide rVI (SEQ ID NO:7), respectively. […] The results shown are representative of three independent experiments.

PKC [3] = assay: Histone type IIIs phosphorylation by PKC; type: biochemical; settings: absence of PS, DG and calcium; peptide 10 μM
Description: Histone type IIIs (Sigma Chemical Company, St. Louis, Mo.) was phosphorylated by PKC (˜10 nM) in the absence (lane 1) and presence of peptide rVI (10 μM) (lanes 2 and 3) and in the presence and absence of DG (0.8 μg/ml), PS (50 μg/ml) and CaCl2 (1 mM) (lane 3). The results are expressed as percentage of control that is the amount of Histone phosphorylation by PKC in the presence of DG (0.8 μg/ml), PS (50 μg/ml) and CaCl2 (1 mM). The results are the average ± SEM of two independent experiments. PKC was first incubated with the peptide rVI (10 μM) for 15 minutes in overlay buffer as described above. Histone type IIIs (40 μg/ml) was added in Tris-HCl (20 mM), MgCl2 (20 mM), ATP (20 μM) and ([γ-^32P]ATP (5 μci/ml) with or without PS (50 μg/ml), DG (0.8 μg/ml) and CaCl2 (1 mM). Histone phosphorylation was determined by autoradiography as above.

δ and εPKC isozymes = assay: PKC isozyme translocation and degradation in cardiac myocytes; type: cell-based, rat
Description: In cardiac myocytes, norepinephrine (NE, 2 μM) causes translocation of δ and εPKC isozymes from the cytosolic to the particulate fraction. […] This peptide-induced translocation was followed by degradation of δ and εPKC isozymes.

[4] = peptide 50 μM microinjected, insulin 8.25 μg/ml
[5] = peptide introduced into cardiac myocytes

T1 sequence (P68403 whole entry): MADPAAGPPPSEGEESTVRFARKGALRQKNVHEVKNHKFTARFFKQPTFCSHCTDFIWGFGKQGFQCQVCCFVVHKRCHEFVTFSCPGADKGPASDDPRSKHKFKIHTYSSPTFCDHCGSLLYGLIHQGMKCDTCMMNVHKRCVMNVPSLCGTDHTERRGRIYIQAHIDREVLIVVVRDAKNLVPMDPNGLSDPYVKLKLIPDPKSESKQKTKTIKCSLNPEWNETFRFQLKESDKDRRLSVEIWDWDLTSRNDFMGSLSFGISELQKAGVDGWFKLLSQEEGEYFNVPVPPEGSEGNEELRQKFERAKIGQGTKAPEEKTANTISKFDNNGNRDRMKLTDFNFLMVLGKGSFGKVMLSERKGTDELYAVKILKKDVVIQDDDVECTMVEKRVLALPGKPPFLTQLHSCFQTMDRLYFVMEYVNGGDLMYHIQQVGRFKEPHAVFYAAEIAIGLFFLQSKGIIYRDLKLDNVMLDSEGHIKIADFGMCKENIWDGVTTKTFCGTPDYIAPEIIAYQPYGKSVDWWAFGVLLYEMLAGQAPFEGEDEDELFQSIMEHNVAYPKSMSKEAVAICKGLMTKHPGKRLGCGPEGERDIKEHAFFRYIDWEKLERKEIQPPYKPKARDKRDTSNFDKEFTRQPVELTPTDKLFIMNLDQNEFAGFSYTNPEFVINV

With “control peptide: control peptide (SEQ ID NO:9) (LKGKIL) [reference compound]” as the substance, how does the “delay to onset of maturation after exposure to insulin” value (Xenopus oocytes; [4]) read?
The value was 4 to 5 h.

And the “time to reach GVBD plateau after insulin exposure” value (Xenopus oocytes; [4])?
The value was 10 to 12 h.

And the “plateau % GVBD (fraction of oocytes reaching maturation) following insulin exposure” value (Xenopus oocytes; insulin 8.25 μg/ml)?
Its value is 85-90%.

And the “nicking of βPKC by Arg-C (78 kDa fragment)” value (βPKC)?
Its value is “did not result in appreciable nicking activity; also recorded: did not occur”.

And the “induction of PKC autophosphorylation (in words)” value (PKC [1])?
The value was “No autophosphorylation; also recorded: Neither peptide I nor control peptide induced PKC autophosphorylation”.

How did the “inhibition of PKC binding to RACK1 (in words)” value (from here on “inhibition of PKC binding”) [2] turn out when “peptide rI: synthetic peptide based on the corresponding region of RACK1 WD-40 repeat I (VTQIATT)” was run?
The value was “effective inhibitors”.

For “peptide rII: synthetic peptide based on the corresponding region of RACK1 WD-40 repeat II (FVSDVVI)”, which “inhibition of PKC binding” value [2] is on record?
The value was “effective inhibitors”.

For “peptide rIII: seven amino acid peptide identical to a segment of RACK1 WD-40 repeat III (DVLSVAF)”, which “inhibition of PKC binding” value [2] is on record?
The value was “inhibit the binding of PKC to RACK1; also recorded: somewhat more effective than peptide rVI”.

What about the “effect on insulin-induced oocyte maturation (in words)” value (Xenopus oocytes; at 50 and 500 μM) of the same substance?
The value was “enhances insulin-induced oocyte maturation”.

And the “plateau % GVBD (fraction of oocytes reaching maturation) following insulin exposure” value (Xenopus oocytes; insulin 8.25 μg/ml)?
The value was ~100%.

What about the “effect on insulin-induced oocyte maturation (in words)” value (Xenopus oocytes; peptide microinjected, insulin) of the same substance?
Its value is “potentiated the effects of insulin on oocyte maturation”.

And the “nicking of βPKC by Arg-C (78 kDa fragment)” value (βPKC)?
The value was “appearance of the 78 kDa nicked PKC fragment”.

What about the “induction of PKC-mediated histone phosphorylation” value (PKC [3]) of the same substance?
Its value is “similarly induced histone phosphorylation”.

And the “NE-induced translocation of δ and εPKC” value (δ and εPKC isozymes; norepinephrine 2 μM)?
Its value is “further enhanced”.

And the “degradation of PKC isozymes” value (δ and εPKC isozymes; [5])?
Its value is “followed by degradation of these activated isozymes; also recorded: accelerated the degradation of PKC”.

What about the “translocation / distribution of δ and εPKC isozymes in the absence of hormone stimulation” value (δ and εPKC isozymes; [5]) of the same substance?
Its value is “caused an immediate translocation”.

“peptide rV: synthetic peptide based on the corresponding region of RACK1 WD-40 repeat V (GYLNTVT)” was tested. Which “inhibition of PKC binding” value [2] did it give?
The value was “lesser inhibitory effect”.

How did the “inhibition of PKC binding” value [2] turn out when “peptide rVII: synthetic peptide based on the corresponding region of RACK1 WD-40 repeat VII (PQCTSLA)” was run?
Its value is “no inhibition”.

How did the “inhibition of PKC binding” value [2] turn out when “rIV: synthetic peptide based on the corresponding region of RACK1 WD-40 repeat IV (VSCVRFS)” was run?
The value was “lesser inhibitory effect”.
